Data reported in the supplement of paper PMC10307832.

What was measured:
Test in all cases: relative viability (nuclei count vs DMSO), 5 days (fraction); higher = more cells survive
[1] = compound: CCn1c(-c2nonc2N)nc2cnc(Oc3cccc(NC(=O)c4ccc(OCCN5CCOCC5)cc4)c3)cc21 + Nc1nc2[nH]cc(CCc3ccc(C(=O)N[C@@H](CCC(=O)O)C(=O)O)cc3)c2c(=O)[nH]1 [Pemetrexed] (partner 0.2 µM)
Method in brief: (§1)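 Values are medians from duplicate plates. Each reflects relative viability, defined as the nuclei count of treated wells over that of vehicle wells. Lung cancer cell lines in 1536-well plates were pin-tool dosed one day after seeding with one drug alone or with a fixed anchor-drug dose plus five library-drug doses (not always all listed) in √10 steps, then fixed, stained and imaged at 4× after 5 days.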

[2] = compound: N=C1NC(=O)/C(=C/c2ccc(O)cc2)S1 [Mirin] + Cc1cc(Nc2cc(N3CCN(C)CC3)nc(Sc3ccc(NC(=O)C4CC4)cc3)n2)n[nH]1 [Tozasertib] (partner 0.1 µM)
Method in brief: as §1

[3] = compound: N=C1NC(=O)/C(=C/c2ccc(O)cc2)S1 [Mirin] + Nc1ncn([C@H]2C[C@H](O)[C@@H](CO)O2)c(=O)n1 [Decitabine] (partner 2 µM)
Method in brief: as §1

[4] = compound: CCC1=CN=CN=C1N2CCN(CC2)CC3=NC4=C(N3)C=C(C=C4)C(F)(F)F + COc1cc2c(Oc3ccc(NC(=O)C4(C(=O)Nc5ccc(F)cc5)CC4)cc3F)ccnc2cc1OCCCN1CCOCC1 [Foretinib] (partner 0.25 µM)
Method in brief: as §1

Cell Line	relative viability ([1]; first compound 0.04 µM)	relative viability ([1]; first compound 0.1265 µM)	relative viability ([1]; first compound 0.4 µM)	relative viability ([1]; first compound 1.265 µM)	relative viability ([1]; first compound 4 µM)	relative viability ([2]; first compound 0.25 µM)	relative viability ([2]; first compound 0.7906 µM)	relative viability ([2]; first compound 2.5 µM)	relative viability ([2]; first compound 7.906 µM)	relative viability ([2]; first compound 25 µM)	relative viability ([3]; first compound 0.25 µM)	relative viability ([3]; first compound 0.7906 µM)	relative viability ([3]; first compound 2.5 µM)	relative viability ([3]; first compound 7.906 µM)	relative viability ([3]; first compound 25 µM)	relative viability ([4]; first compound 0.04 µM)	relative viability ([4]; first compound 0.1265 µM)	relative viability ([4]; first compound 0.4 µM)	relative viability ([4]; first compound 1.265 µM)	relative viability ([4]; first compound 4 µM)
NCI-H838	0.252	0.218	0.187	0.179	0.156	0.265	0.303	0.213	0.23	0.203	0.432	0.424	0.517	0.424	0.361	1.1	0.986	0.958	0.888	1.09
HARA	0.211	0.233	0.205	0.181	0.212	0.126	–	0.107	0.0865	0.0791	0.768	–	0.644	0.653	0.442	0.85	0.952	0.836	–	0.828
NCI-H23	0.864	0.74	0.442	0.532	0.431	0.496	–	0.427	0.288	0.256	0.298	–	0.292	0.295	0.284	0.822	0.99	0.961	0.801	0.906
LCLC-97TM1	0.228	0.196	–	0.192	0.18	0.191	0.151	0.19	0.138	0.122	0.239	0.224	0.228	0.179	0.197	0.897	0.898	0.895	0.838	0.888
LC-2-ad	0.257	0.269	0.241	0.199	0.206	0.459	0.35	0.476	0.342	0.256	0.843	0.814	0.743	0.78	0.921	0.927	0.88	0.922	0.803	0.857
SW 1573	0.913	0.821	0.535	0.32	0.261	0.181	0.195	0.234	0.188	0.108	0.605	0.61	0.482	0.412	0.247	0.732	0.863	0.912	0.815	0.8
EKVX	0.516	0.371	0.346	0.359	0.313	0.397	0.323	0.368	0.322	0.345	0.317	0.338	0.395	0.361	0.26	0.748	0.675	0.753	–	0.779
NCI-H2087	0.777	0.653	0.642	0.603	0.596	0.26	0.248	0.292	0.22	0.19	0.245	0.215	0.286	0.24	0.208	1	1.06	0.916	1.05	0.535
HCC-827	0.27	0.261	0.266	0.267	0.285	0.412	0.39	0.421	0.384	0.426	0.17	0.262	0.36	0.308	0.351	0.962	0.945	1.02	–	0.826
NCI-H661	0.922	0.994	0.893	0.74	0.513	0.351	0.367	0.344	0.337	0.327	0.587	0.569	0.539	0.501	0.525	0.973	1.03	1.04	0.943	0.834
CAL-12T	1.81	1.38	1.39	1.04	0.996	0.282	–	0.317	0.283	0.222	–	–	–	–	–	1.08	1.1	1.07	1.12	0.968
NCI-H2342	0.75	0.782	0.736	0.474	0.76	0.474	0.636	0.625	0.49	0.459	0.77	0.775	0.684	–	0.633	1.16	0.95	0.945	0.528	0.607
SW 900	0.526	0.49	0.439	0.442	0.444	0.652	0.698	0.571	0.689	0.473	0.326	0.413	0.438	0.414	0.384	0.778	0.825	0.81	0.795	0.793
IA-LM	–	–	–	–	–	–	–	–	–	–	–	–	–	–	–	1.11	0.943	1.02	1.1	1.22
EPLC-272H	0.392	0.328	0.253	0.239	0.119	0.267	–	0.262	0.127	0.15	0.33	–	0.39	0.34	0.28	0.787	0.787	0.688	0.653	0.639
A-427	0.876	0.708	0.529	0.228	0.318	0.196	–	0.202	0.143	0.158	0.554	0.479	0.546	0.521	0.514	1.03	1.11	1.03	0.959	0.534
NCI-H650	1.05	0.799	0.454	0.425	0.458	0.684	0.557	0.707	–	0.51	0.32	0.335	0.306	0.294	0.354	1.16	1.09	1.05	0.934	1.03
NCI-H1975	0.29	0.269	0.23	0.188	0.178	0.697	0.84	0.799	0.664	0.585	0.427	0.329	0.402	0.36	0.401	1	0.945	0.986	0.829	0.803
NCI-H358	0.176	0.169	0.19	0.178	0.151	0.11	0.0924	0.114	0.0872	0.106	0.238	0.194	0.242	0.169	0.177	0.746	0.626	0.686	0.509	0.651
RERF-LC-KJ	0.471	0.439	0.418	0.384	0.415	0.488	0.524	0.467	0.424	0.385	0.691	0.753	0.684	0.622	0.561	0.763	0.755	0.82	0.851	0.82

Cell Line	relative viability ([1]; first compound 0.04 µM)	relative viability ([1]; first compound 0.1265 µM)	relative viability ([1]; first compound 0.4 µM)	relative viability ([1]; first compound 1.265 µM)	relative viability ([1]; first compound 4 µM)	relative viability ([2]; first compound 0.25 µM)	relative viability ([2]; first compound 0.7906 µM)	relative viability ([2]; first compound 2.5 µM)	relative viability ([2]; first compound 7.906 µM)	relative viability ([2]; first compound 25 µM)	relative viability ([3]; first compound 0.25 µM)	relative viability ([3]; first compound 0.7906 µM)	relative viability ([3]; first compound 2.5 µM)	relative viability ([3]; first compound 7.906 µM)	relative viability ([3]; first compound 25 µM)	relative viability ([4]; first compound 0.04 µM)	relative viability ([4]; first compound 0.1265 µM)	relative viability ([4]; first compound 0.4 µM)	relative viability ([4]; first compound 1.265 µM)	relative viability ([4]; first compound 4 µM)
NCI-H1792	0.972	0.724	0.228	0.274	0.449	–	–	–	–	–	0.5	0.504	0.665	0.516	0.573	–	–	–	–	–
NCI-H647	0.21	0.16	0.143	0.122	0.137	0.23	0.224	0.185	0.165	0.165	0.446	0.423	0.361	0.401	0.387	1.29	1.12	1.21	1.13	1.41
SK-LU-1	0.918	0.906	0.772	0.457	0.372	0.332	0.325	0.346	0.213	0.209	0.713	0.618	0.8	0.494	0.509	0.876	0.785	0.76	0.813	0.77
NCI-H441	0.261	0.26	0.251	0.243	0.252	0.719	0.762	0.634	0.551	0.26	0.251	0.259	0.244	0.217	0.218	0.96	1.07	0.938	0.884	0.993
COR-L 105	1.13	0.965	1.09	0.615	0.507	0.341	0.384	0.343	0.401	0.309	0.596	0.698	0.744	0.667	0.63	1.25	0.941	1.04	0.941	1.16
NCI-H1993	0.649	0.616	0.526	0.579	0.526	0.611	–	0.605	0.52	0.576	0.656	0.46	0.663	0.525	0.551	0.844	0.73	0.668	0.682	0.668
NCI-H1437	0.324	0.317	0.297	0.216	0.201	0.451	0.407	0.372	0.343	0.377	0.571	0.559	0.606	0.647	0.555	1.23	1.14	1.15	1.15	1.08
EBC-1	–	–	–	–	–	–	–	–	–	–	–	–	–	–	–	0.107	0.0909	0.0948	0.0919	0.112
ABC-1	–	–	–	–	–	0.167	0.235	0.197	0.223	0.193	1.09	0.898	1.16	0.883	0.715	1.32	1.05	1.12	1.24	0.886
NCI-H1563	0.82	0.769	0.694	0.595	0.734	–	–	–	–	–	–	–	–	–	–	0.961	1.01	0.938	0.844	0.917
NCI-H1648	1.01	1.13	0.828	0.964	0.78	0.444	0.608	0.506	0.466	0.251	0.559	–	0.51	0.525	0.418	–	–	–	–	–
NCI-H1299	–	–	–	–	–	–	–	–	–	–	–	–	–	–	–	1.1	1.02	1.12	1.11	1.08
A549	–	–	–	–	–	–	–	–	–	–	0.311	0.298	0.278	0.305	0.301	0.851	0.903	0.937	0.816	0.905
NCI-H1623	–	–	–	–	–	0.448	0.429	0.423	0.436	0.377	–	–	–	–	–	0.835	0.819	0.767	0.749	0.794
NCI-H1703	–	–	–	–	–	–	–	–	–	–	–	–	–	–	–	0.344	0.366	0.369	0.381	0.372
NCI-H2228	0.328	0.289	0.302	0.285	0.333	0.267	0.197	0.235	0.203	0.176	–	–	–	–	–	1.09	0.848	0.647	0.746	0.801
NCI-H727	–	–	–	–	–	0.705	0.629	0.661	0.543	0.553	0.603	0.83	1	0.865	0.922	0.854	0.811	0.693	0.573	0.949
HCC-44	0.62	0.652	0.547	0.678	0.425	1.06	0.433	0.93	0.824	0.404	0.938	0.958	0.99	0.922	1.01	–	–	–	–	–
NCI-H522	1.06	0.763	0.917	0.703	0.595	0.491	0.538	0.582	0.517	0.472	0.576	0.611	0.668	0.654	0.524	–	–	–	–	–
Calu-6	–	–	–	–	–	–	–	–	–	–	–	–	–	–	–	0.91	0.841	0.889	0.807	0.782
